This is an account of results in a melting point compilation (Tetko et al.).

Molecules are shown by their SMILES.

As to `O=C(O)c1cn(C2CCCCC2)nn1`, the melting point (in general, the temperature of the solid-liquid transition) was in the range of 163 to 165 °C.
`Cc1cc(=O)[nH]cn1` showed a melting point of 138 to 140 °C.
Take `CC(Cl)C(=O)Nc1cc(Cl)ccc1Cl` (stereo unspecified): the melting point was in the range of 123 to 125 °C.
`Nc1ccc(C(=O)CCC(=O)O)cc1` registered a melting point of 184 to 186 °C.
The value for `Clc1ccc(N2CCNCC2)nc1` was 64 to 66 °C; that for `NCC(O)c1ccc(F)c(F)c1` (stereo unspecified) was 53 to 55 °C; that for `O=C1CC(C(F)(F)F)NCCN1` (stereo unspecified) was 136 to 138 °C.
`O=C(O)C1CCCN1C(=O)c1ccccc1O` (stereo unspecified) gave a melting point of 134 to 136 °C.
The value for `OCCc1nc2ccccc2s1` was 40 to 44 °C.
`COC(=O)C(=O)CC(=O)c1ccccc1Br` gave a melting point of 61 to 63 °C.
In the case of `NC(=O)c1ccc(C(=O)O)nc1`, the melting point is 249 to 251 °C.
Regarding `NC(=NO)c1ccccc1OCc1ccccc1`, the melting point fell in the range of 120 to 122 °C.
`O=C(Cc1nc2ccccc2s1)Nc1ccc(Cl)cc1` gave a melting point of 164 to 166 °C.
On to `Sc1nnc(-c2c[nH]c3ccccc23)n1CC1CCCO1` (stereo unspecified), for which the melting point was in the range of 251 to 253 °C.
The value for `Nc1ccc(NC(=O)c2ccccc2)cc1C(F)(F)F` was 130 to 132 °C.
On to `CC1(O)CCc2ccccc2C1` (stereo unspecified), for which the melting point fell in the range of 39 to 41 °C.
For `Cc1cc([N+](=O)[O-])ccc1OCCO`, the melting point is 93 to 95 °C.
The value for `Brc1ccc(NCc2cccnc2)cc1` was 88 to 90 °C; that for `Cc1cc2ccccc2nc1Br` was 94 to 96 °C; that for `O=C(NCCc1ccc(F)cc1)C1Cc2ccccc2CN1` (stereo unspecified) was 102 to 104 °C.
In the case of `Cc1nn(Cc2ccccc2)c(Cl)c1C(=O)O` it was 180 to 182 °C; in that of `CS(=O)(=O)c1cccc(C(=O)c2ccc(Cl)cc2)c1`, 107 to 109 °C.
The compound `CCn1cc(C=O)c2ccccc21` registered a melting point of 104 to 106 °C.
Turning to `O=C(O)C1CC(O)CN1C(=O)COc1ccccc1` (stereo unspecified), the melting point lay within 157 to 159 °C.
In the case of `CC(C)c1ccc(-c2nn(-c3ccccc3)cc2C(=O)O)cc1` it was 222 to 224 °C.
The compound `COC(=O)c1cc(CBr)on1` yielded a melting point of 59 to 61 °C.
In turn, `O=S(=O)(Cl)c1cccc(-n2cnnn2)c1` had a melting point of 125 to 127 °C.
`Cc1ccccc1C(O)CN` (stereo unspecified) showed a melting point of 88 to 90 °C.
`C=CCn1c(SCCCCCCCCCCCC)nc2scc(-c3ccccc3)c2c1=O` yielded a melting point of 84 to 86 °C.
On to `CC1CCC(NS(=O)(=O)CC(=O)O)CC1` (stereo unspecified), for which the melting point lay within 116 to 118 °C.
In the case of `Nc1ccc2oc(C(F)(F)F)nc2c1` it was 120 to 122 °C; in that of `CC1CCc2c(sc3nc(CN4CCOCC4)nc(Cl)c23)C1` (stereo unspecified), 55 to 57 °C.
Compound `Nc1nc(-c2cccs2)cs1` displayed a melting point of 136 to 138 °C.
In turn, `O=c1[nH]c(N2CCOCC2)nc2scc(-c3ccccc3)c12` registered a melting point of 307 to 309 °C.
In the case of `COc1ccc(CCn2c(S)nc3ccccc3c2=O)cc1OC`, the melting point was 223 to 225 °C.
For the compound `Brc1cnc2ncnn2c1`, the melting point was in the range of 184 to 186 °C.
The value for `NC(=O)c1ccc(N2CCNCC2)nc1` was 195 to 197 °C; that for `CC(C)(C)c1nc(CC(=O)O)cs1` was 94 to 96 °C.
As for `CN(CC(=O)O)C(=O)Nc1cccc([N+](=O)[O-])c1`, the melting point is 157 to 159 °C.
`O=C(NC(CO)C(=O)O)c1cccc(Br)c1` (stereo unspecified): the melting point was 140 to 142 °C.
The value for `COc1cc(OC)c(S(=O)(=O)Cl)cc1Br` was 193 to 195 °C; that for `COc1ccc(N2CCN(C(=O)CCCl)CC2)cc1` was 73 to 75 °C.
Regarding `NC(=O)C1CNCCO1` (stereo unspecified), the melting point lay in the range of 158 to 160 °C.
With `Cc1cccc2c(CCN)c[nH]c12`, the melting point fell in the range of 125 to 127 °C.
Regarding `CNc1ccc(C(=O)O)cn1`, the melting point is 249 to 251 °C.
`COC(=O)c1ccc(C=O)[nH]1` came in with a melting point of 99 to 101 °C.
As for `CC1(C)NC(=O)N(Cc2ccc(Cl)nc2)C1=O`, the melting point lay in the range of 127 to 129 °C.
In turn, `CS(=O)(=O)c1c(F)cc(N)cc1F` returned a melting point of 169 to 171 °C.
The value for `CC(N)c1cccc(S(N)(=O)=O)c1` (stereo unspecified) was 27 to 29 °C; that for `Cc1ccc(-c2cc(CS(=O)(=O)Cl)on2)cc1` was 119 to 121 °C.
In the case of `Cc1nnc(NCC2CC2)c2ccccc12` it was 89 to 91 °C; in that of `Nc1ccc(C(=O)NCCN2CCCC2)cc1`, 137 to 139 °C; in that of `Brc1ccc(NCc2ccsc2)cc1`, 44 to 46 °C.
Regarding `NC(CN1CCCC1=O)c1ccccc1` (stereo unspecified), the melting point fell in the range of 99 to 101 °C.
On to `NS(=O)(=O)c1cccc(NC(=O)c2ccc(C(=O)O)s2)c1`, for which the melting point fell in the range of 308 to 310 °C.
Consider `Cc1nc(-c2ccc(F)cc2)sc1C(=O)O`, for which the melting point fell in the range of 251 to 253 °C.
For the compound `NC(N=O)=C1NC=Cc2ccccc21`, the melting point was in the range of 125 to 127 °C.
`CCCOc1ccc(C=CC(=O)O)cc1OCC` yielded a melting point of 149 to 151 °C.
The compound `NNc1ccc(S(=O)(=O)NC2CC2)cn1` returned a melting point of 195 to 197 °C.
The compound `N#CCCCOc1cccnc1N` gave a melting point of 88 to 90 °C.
`Cn1c(C=O)nc2cc(C(F)(F)F)ccc21` registered a melting point of 111 to 113 °C.
`O=C(O)c1cccc(=O)[nH]1` came in with a melting point of 239 to 241 °C.
In the case of `N#Cc1cc(Cl)ccc1OC1CCOC1` (stereo unspecified) it was 128 to 130 °C.
`Nc1ncc(Cl)s1` registered a melting point of 90 to 92 °C.
For the compound `Cc1cc(F)c([N+](=O)[O-])cc1S(=O)(=O)Cl`, the melting point was in the range of 66 to 68 °C.
The compound `O=C(O)c1cccc(OCC(F)(F)F)c1` returned a melting point of 104 to 106 °C.
`COc1cccc(C(C)=CC(=O)O)c1` displayed a melting point of 102 to 104 °C.
The compound `CCN(CC)S(=O)(=O)c1ccc(N2CCCC2)c(C(=O)O)c1` showed a melting point of 141 to 144 °C.
The value for `O=C(O)CNC(=O)NCc1ccc([N+](=O)[O-])cc1` was 166 to 168 °C; that for `CC(=O)c1ccc(N2CCC(O)CC2)cc1` was 127 to 129 °C; that for `N#CCCn1cc(/C=C/C(=O)O)c2ccccc21` was 188 to 192 °C.
The value for `Cc1ccc(NC(=S)NN)cc1C` was 176 to 178 °C.
`N#Cc1cnn(-c2nccs2)c1N`: the melting point fell in the range of 165 to 167 °C.
On to `O=C(O)/C=C/c1cccc(OCc2ccccc2)c1`, for which the melting point lay in the range of 151 to 153 °C.
In turn, `NCc1ccnc(NC2CC2)c1` had a melting point of 39 to 41 °C.
The value for `Cn1ccc(C(=O)N2CCC(CO)CC2)cc1=O` was 174 to 176 °C; that for `Cc1cc(Br)ccc1OCc1ccccc1` was 56 to 58 °C; that for `COCCn1cnc2c1c(=O)n(CC(=O)O)c(=O)n2Cc1ccccc1` was 131 to 133 °C.
With `N#Cc1ccc([N+](=O)[O-])cc1F`, the melting point is 69 to 71 °C.
The value for `O=C1CC2(CCCc3ccccc32)C(=O)O1` (stereo unspecified) was 99 to 101 °C.
Compound `Cc1c(O)ccc2c(CCl)cc(=O)oc12` showed a melting point of 268 to 270 °C.
Compound `C=CCNC(=O)c1cccnc1Cl` yielded a melting point of 75 to 77 °C.
In the case of `O=C1CCN(c2ccc(Cl)cc2)CC1` it was 54 to 56 °C.
Regarding `NC(=O)Cn1ncc(Cl)c(Cl)c1=O`, the melting point was in the range of 245 to 247 °C.
The value for `CS(=O)(=O)N1CCCCC1C(=O)O` (stereo unspecified) was 74 to 76 °C; that for `CCCCCCc1nc(S)c2c(=O)n(C)c(=O)n(CCC)c2n1` was 172 to 174 °C.
